Earlier results as cited in paper PMC2831464 (Clinical cancer research : an official journal of the …, 2010).

Settings: cited from earlier work

SMILES | lactone AUC ratio | half-life [h] | share in the lactone form in plasma
CC[C@@]1(O)C(=O)OCc2c1cc1n(c2=O)Cc2cc3c(CN(C)C)c(O)ccc3nc2-1 [topotecan] | 30~76% |  | 
CC[C@@]1(O)C(=O)OCc2c1cc1n(c2=O)Cc2c-1nc1ccccc1c2/C=N/OC(C)(C)C [gimatecan] |  | 77 | 90–98%
CCc1c2c(nc3ccc(O)cc13)-c1cc3c(c(=O)n1C2)COC(=O)[C@]3(O)CC [SN-38] | 30~76% |  | 
CC[C@@]1(O)C(=O)OCc2c1cc1n(c2=O)Cc2c-1nc1ccccc1c2CC[Si](C)(C)C [karenitecin] |  | 15 | 90–95%
